Kd data for eight compounds are collected here from BindingDB's records for patent US20250074891 (Anaxis Pharma, 2025).

Holding throughout (assay): In Vitro Assay
Assay [1] deals with T1, Mixed lineage kinase domain-like protein (Homo sapiens, UniProt Q8NB16).
T1 sequence (Q8NB16 whole entry): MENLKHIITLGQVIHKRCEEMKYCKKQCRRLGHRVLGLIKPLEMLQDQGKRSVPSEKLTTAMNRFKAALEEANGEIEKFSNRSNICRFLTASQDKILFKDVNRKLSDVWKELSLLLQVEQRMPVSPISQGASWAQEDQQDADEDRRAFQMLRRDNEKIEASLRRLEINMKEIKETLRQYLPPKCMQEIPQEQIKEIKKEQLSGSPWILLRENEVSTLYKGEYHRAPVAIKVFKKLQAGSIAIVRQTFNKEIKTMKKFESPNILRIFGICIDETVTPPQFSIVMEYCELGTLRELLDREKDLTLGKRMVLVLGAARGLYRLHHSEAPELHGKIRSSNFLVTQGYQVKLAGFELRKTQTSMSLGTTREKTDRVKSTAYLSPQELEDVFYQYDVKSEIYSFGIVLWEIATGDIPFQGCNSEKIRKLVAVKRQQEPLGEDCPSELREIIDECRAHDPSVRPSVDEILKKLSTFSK
The method, then: (§1) Kinase assays. For most assays, kinase-tagged T7 phage strains were grown in parallel in 24-well blocks in an E. coli host derived from the BL21 strain. E. coli were grown to log-phase and infected with T7 phage from a frozen stock (multiplicity of infection=0.4) and incubated with shaking at 32° C. until lysis (90-150 minutes).

Assay [2] deals with T2, Receptor-interacting serine/threonine-protein kinase 1 (Homo sapiens, UniProt Q13546).
T2 sequence (Q13546 whole entry): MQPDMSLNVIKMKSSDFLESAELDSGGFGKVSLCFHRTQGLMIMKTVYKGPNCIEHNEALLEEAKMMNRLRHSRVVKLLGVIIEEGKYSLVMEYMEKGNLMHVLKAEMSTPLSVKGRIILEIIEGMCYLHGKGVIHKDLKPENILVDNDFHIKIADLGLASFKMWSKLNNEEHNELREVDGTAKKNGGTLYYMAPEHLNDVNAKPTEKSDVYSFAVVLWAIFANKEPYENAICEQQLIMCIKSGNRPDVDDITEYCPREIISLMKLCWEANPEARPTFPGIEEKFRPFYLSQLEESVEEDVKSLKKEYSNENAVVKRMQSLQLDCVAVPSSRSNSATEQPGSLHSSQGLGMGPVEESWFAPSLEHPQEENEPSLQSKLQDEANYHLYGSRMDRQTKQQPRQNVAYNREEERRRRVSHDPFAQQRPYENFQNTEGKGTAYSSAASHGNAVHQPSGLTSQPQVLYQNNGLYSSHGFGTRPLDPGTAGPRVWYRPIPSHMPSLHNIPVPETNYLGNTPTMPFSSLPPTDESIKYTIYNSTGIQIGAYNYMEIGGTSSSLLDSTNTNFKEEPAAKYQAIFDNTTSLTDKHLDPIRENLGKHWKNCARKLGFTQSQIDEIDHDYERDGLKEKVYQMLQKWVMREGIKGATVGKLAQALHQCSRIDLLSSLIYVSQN
The protocol: as §1

For assay [3], the target named is Receptor-interacting serine/threonine-protein kinase 3 (Homo sapiens, UniProt Q9Y572). The method, then:
as §1

Receptor-interacting serine/threonine-protein kinase 3, sequence (Q9Y572 whole entry): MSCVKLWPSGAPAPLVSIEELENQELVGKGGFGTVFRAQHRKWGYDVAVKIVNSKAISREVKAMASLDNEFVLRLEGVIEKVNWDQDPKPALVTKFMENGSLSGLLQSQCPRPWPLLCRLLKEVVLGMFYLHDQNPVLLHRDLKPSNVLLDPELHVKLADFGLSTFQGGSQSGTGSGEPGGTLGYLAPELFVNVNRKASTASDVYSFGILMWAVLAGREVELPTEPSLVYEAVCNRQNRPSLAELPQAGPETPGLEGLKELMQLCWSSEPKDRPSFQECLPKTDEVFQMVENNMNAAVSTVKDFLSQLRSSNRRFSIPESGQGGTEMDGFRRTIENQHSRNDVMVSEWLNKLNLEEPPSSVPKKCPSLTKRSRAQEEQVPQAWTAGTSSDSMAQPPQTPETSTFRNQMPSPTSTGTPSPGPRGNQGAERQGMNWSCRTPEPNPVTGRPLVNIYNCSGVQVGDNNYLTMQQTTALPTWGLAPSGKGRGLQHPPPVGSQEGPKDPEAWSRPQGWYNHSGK

For `C[C@H](Oc1cc(-c2n[nH]c(Nc3cc(C4(C)CCOCC4)on3)c2C(N)=O)ccc1NS(=O)(=O)C(F)F)c1ccc(F)cc1` [US20250074891, Compound 301], the values for the Kd in assay [1], in assay [2] and in assay [3] were < 0.01 µM, > 30 µM and > 30 µM, respectively.

Take `NC(=O)c1c(-c2ccc(NS(=O)(=O)Cc3ccc(Cl)cc3)cc2)n[nH]c1Nc1cccc(C(F)(F)F)n1` [US20250074891, Compound 60]: the Kd in assay [2] and in assay [3] was > 30 µM each time.

For `NC(=O)c1c(-c2ccc(NS(=O)(=O)CC(F)(F)F)c(OCc3ccc(F)cc3)c2)n[nH]c1Nc1cccc(C(F)(F)F)n1`, the Kd result in assay [1] is “in the range around 0.505 µM”; in assay [2], > 30 µM; in assay [3], > 30 µM.

`CCOc1nccc(Nc2[nH]nc(-c3ccc(NS(=O)(=O)CC)cc3)c2C(N)=O)n1` [US20250074891, Compound 98]: the Kd in assay [1] is < 0.01 µM; in assay [2], > 30 µM; in assay [3], > 30 µM.

Turning to `C[C@H](Oc1cc(-c2n[nH]c(Nc3cc(C4CC4)on3)c2C(N)=O)ccc1NS(=O)(=O)C(F)F)c1ccc(F)cc1` [US20250074891, Compound 310], the values for the Kd in assay [1], in assay [2] and in assay [3] were < 0.01 µM, > 30 µM and > 30 µM, respectively.

In the case of `Cc1ncsc1-c1ccc(CNC(=O)[C@@H]2C[C@@H](O)CN2C(=O)[C@@H](NC(=O)CCCCOc2ccc(Nc3[nH]nc(-c4ccc(NS(=O)(=O)C(F)F)c(OCc5ccc(F)cc5)c4)c3C(N)=O)nc2)C(C)(C)C)cc1` [US20250074891, Compound 1025], in assay [1], the equilibrium dissociation constant (Kd) was < 0.01 µM.

As for `CCS(=O)(=O)Nc1ccc(-c2n[nH]c(Nc3cnccn3)c2C(N)=O)cc1OC1CCCc2cc(F)ccc21` (stereo not given) [US20250074891, Compound 224], the Kd in assay [1] is < 0.01 µM; in assay [2] it was > 30 µM; in assay [3], > 30 µM.

Consider `CCS(=O)(=O)Nc1ccc(-c2n[nH]c(Nc3cccc(C(F)F)n3)c2C(N)=O)cc1` [US20250074891, Compound 92], for which the values for the Kd in assay [1] and in assay [2] were < 0.01 µM and > 30 µM, respectively.
